Experimental data taken from patent publication US20100256230A1, “1-BUTANE ACID DERIVATIVES, PHARMACEUTICAL COMPOSITIONS CONTAINING SAID DERIVATIVES AND THE USE THEREOF” (SCHEBO BIOTECH AG, priority 2001, published 2010).

How the values were obtained:
[1] = tested on: glycolysis of Novikoff-Zellen hepatoma cells; test: Inhibition of glycolysis of Novikoff cells (lactate produced for glucose consumed); assay type: cell-based
[2] = tested on: Novikoff hepatoma cells; test: Proliferation inhibition of Novikoff hepatoma cells (cell count after four days of cultivation); assay type: cell-based; conditions: Novikoff hepatoma cells, 100,000 cells seeded per 25 cm2 bottle, counted after four days of cultivation, compared to control without compound; FIGS. 1 and 2
Method: The cell density was measured after four days of cultivation.
The cell density was measured after 4 days of cultivation.
The Novikoff hepatoma cells utilized in this example were obtained from the tumor bank of the Deutsches Krebsforschungszentrum, Heidelberg (Cancer Research 1951, 17, 1010). 100,000 cells each are seeded per 25 cm^2 cultivation bottle. The substance according to Example 1 of the invention, dissolved in a solvent suitable for use in cell cultures, for instance water, diluted ethanol, dimethylsulfoxide or the like, was added in an increasing concentration to the culture medium, e.g. L-cycloserine (compound 16) or dehydrothreonine (compound 2) in a concentration range of 80 μM-5,000 μM; carbomethoxypropionyl cyanide (compound 13) in a range of 100 μM-300 μM. After four days of cultivation, the number of cells per bottle was counted. The results are shown in FIGS. 1 and 2, and a dose dependence of the proliferation inhibition compared to the control sample without addition of a compound according to the invention can be seen.

Compound	inhibition of glycolysis flow, lactate produced for glucose consumed ([1]; FIG. 3)	inhibition of glycolysis flow, lactate produced for glucose consumed ([1]; FIG. 3, listed as CMPC)	inhibition of tumor cell growth (proliferation inhibition, cell density) [2]
COC(=O)CCC(=O)C#N [carbomethoxypropionyl cyanide]	massively inhibits the glycolysis flow	inhibition of glycolysis	dose-dependent inhibition of tumor cell growth
N[C@H]1CONC1=O [L-glycoserine, L-cycloserine]	–	–	dose-dependent inhibition of tumor cell growth
